According to PubChem BioAssay (NCI):
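Method: 48-hour compound exposure of cells in 96-well plates, five concentrations, linear interpolation of endpoints. GI50 = concentration required for 50% inhibition of growth. The concentration for full growth arrest is given as TGI.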

Experiments:
Assay in all cases: inhibition of tumour cell growth, NCI panel, 48 h
SNB-19 CNS = test system: SNB-19 CNS
SK-MEL-28 melanoma = test system: SK-MEL-28 melanoma
T-47D breast = test system: T-47D breast
HOP-92 NSCLC = test system: HOP-92 NSCLC
IGROV1 ovarian = test system: IGROV1 ovarian
NCI/ADR-RES ovarian = test system: NCI/ADR-RES ovarian
RPMI-8226 leukemia = test system: RPMI-8226 leukemia
MCF7 breast = test system: MCF7 breast
BT-549 breast = test system: BT-549 breast
TK-10 renal = test system: TK-10 renal
ACHN renal = test system: ACHN renal
SNB-75 CNS = test system: SNB-75 CNS
HOP-62 NSCLC = test system: HOP-62 NSCLC
EKVX NSCLC = test system: EKVX NSCLC
CAKI-1 renal = test system: CAKI-1 renal
SK-OV-3 ovarian = test system: SK-OV-3 ovarian
CCRF-CEM leukemia = test system: CCRF-CEM leukemia
SK-MEL-2 melanoma = test system: SK-MEL-2 melanoma
SR leukemia = test system: SR leukemia
MOLT-4 leukemia = test system: MOLT-4 leukemia
OVCAR-8 ovarian = test system: OVCAR-8 ovarian
786-0 renal = test system: 786-0 renal
KM12 colon = test system: KM12 colon
COLO 205 colon = test system: COLO 205 colon
A549 NSCLC = test system: A549 NSCLC
A498 renal = test system: A498 renal
MDA-MB-435 = test system: MDA-MB-435
U251 CNS = test system: U251 CNS
SF-295 CNS = test system: SF-295 CNS

## NCCNC1=CC(=O)c2nc3ccccc3c3ccnc1c23
SNB-19 CNS
  GI50: 1.79 µM
  TGI: 8.33 µM
SK-MEL-28 melanoma
  GI50: 4.27 µM
  TGI: > 80.5 µM
T-47D breast
  GI50: 3.75 µM
  TGI: 20.3 µM
HOP-92 NSCLC
  GI50: 16.4 µM
  TGI: > 43.8 µM
IGROV1 ovarian
  GI50: 1.58 µM
  TGI: 10.6 µM
NCI/ADR-RES ovarian
  GI50: 3.13 µM
  TGI: 24.9 µM
RPMI-8226 leukemia
  GI50: 2.01 µM
  TGI: > 40.7 µM
MCF7 breast
  GI50: 4.55 µM
  TGI: > 50.1 µM
BT-549 breast
  GI50: 4.09 µM
  TGI: 20.6 µM
TK-10 renal
  GI50: 25.9 µM
  TGI: > 100 µM
ACHN renal
  GI50: 1.91 µM
  TGI: 19.6 µM
SNB-75 CNS
  GI50: 3.98 µM
  TGI: > 29 µM
HOP-62 NSCLC
  GI50: 0.362 µM
  TGI: 6.41 µM
EKVX NSCLC
  GI50: 16.7 µM
  TGI: 53.5 µM
CAKI-1 renal
  GI50: 0.534 µM
  TGI: 2.96 µM
SK-OV-3 ovarian
  GI50: 3.69 µM
  TGI: > 65.2 µM
CCRF-CEM leukemia
  GI50: 2.53 µM
  TGI: > 50.7 µM
SK-MEL-2 melanoma
  GI50: 3.05 µM
  TGI: 29.6 µM
SR leukemia
  GI50: 0.374 µM
MOLT-4 leukemia
  GI50: 3.39 µM
  TGI: > 36.9 µM
OVCAR-8 ovarian
  GI50: 3.83 µM
  TGI: > 100 µM
786-0 renal
  GI50: 2.45 µM
  TGI: > 29.2 µM
KM12 colon
  GI50: 3.67 µM
  TGI: 38.8 µM
COLO 205 colon
  GI50: 8.72 µM
  TGI: 29 µM
A549 NSCLC
  GI50: 3.26 µM
  TGI: > 100 µM
A498 renal
  GI50: 9.55 µM
  TGI: > 100 µM
MDA-MB-435
  GI50: 1.42 µM
  TGI: 7.62 µM
U251 CNS
  GI50: 2.3 µM
  TGI: 22.7 µM
SF-295 CNS
  GI50: 1.73 µM
  TGI: 7.31 µM
